From patent publication EP2545914A1, “2-amino-2-oxoethyl trans-3-[5-(6-methoxy-naphtalen-1-yl)-1,3-dioxan-2-yl]propyl-carbamate for use in the treatment of persistent cancer pain” (SANOFI, priority 2011, dated 2013)
Where two headings read alike, the source gives them in different places.

Legend:
[1] = test system: mice inoculated with BO2 breast carcinoma cells; experiment: Tactile allodynia (Dynamic Plantar Aesthesiometer) in a model of bone metastatic cancer pain induced by BO2 cells; type: in vivo, female BALB/cByJ Ico-nu/nu mice; details: for paw withdrawal thresholds to non-noxious stimulations versus vehicle-treated animals: p<0.0001; for Reversal of allodynia (%): T2h; for Delta values (Delta PWT): T2h minus T0
Procedure: The model of cancer pain MDA-MB-231 breast cancer cells cause the development of highly vascularized skeletal lesions in animals. Here, we chose to perform a model of bone metastasis induced by BO2 cells, a sub-clone of MDA-MB-231 cancer cells expressing the bioluminescent jellyfish protein (green fluorescent protein). BO2 cells were inoculated into the tail of nude mice. […] In our study, BO2 invasion of the hind paws was evaluated by combining both fluorescence imaging and X-Ray radiology with evaluation of allodynic-like behavior in the tumor-bearing hind paws. The aim of the study was to assess the anti-allodynic activity of Compound A in a model of bone metastatic cancer pain in mice, at the time when allodynia-like symptoms are fully developed.
Non-fasted female BALB/cByJ Ico-nu/nu mice (aged 4 weeks at the beginning of the experimental phase, Charles River Laboratories, L'Arbresle, France) were used for this study. One week before starting the experiment and to enable full acclimatization, mice were caged in groups of 10 animals per cage. They were housed in macrolon type III cages with filter hoods in a sterile room in which the air was continuously filtered to avoid any contamination. The sterility of the room was checked once a month and the cages were sterilized at 121°C for 30 minutes before use and changed twice a week. Room temperature was maintained at 22°C, and relative humidity at 60% ±10%. The animals were kept under a natural daylight cycle. The animals were fed with RO3 irradiated at 10 kGy, purchased from UAR (91360 Epinay sur Orge, France), and water sterilized at 121°C for 30 minutes. Water consumption was visually monitored daily and the bottles were changed twice a week. Food and water were given ad libitum. The animal bedding was produced by UAR and sterilized at 121°C for 30 minutes and renewed twice a week. One day before the beginning of the study, mice were implanted in the back with an electronic chip for identification purposes. The day of BO2 breast carcinoma inoculation into the tail vein, mice were placed in groups of 9 or 8 animals per cage. Tumor progression (fluorescence imaging +X-Ray radiology) associated with evoked pain behavior were measured at least once a week during the entire study (data available on request). This allowed us to ensure that only mice with tumor progression and pain-like behavior were selected to enter in the testing procedure.
Compound A as a base was prepared extemporaneously as follows: the compound was weighed and 0.5% of Tween 80 was added, followed by addition of 0.6% Methyl Cellulose. The resulting suspensions were maintained at room temperature under magnetic stirring until the administration. Compound A was administered via oral gavage in a volume of 10 mL/kg, once daily for 7 days. On the first day of treatment, Compound A was administered at 30 mg/kg. From day 2 to day 7, Compound A was administered at 10 mg/kg.
For the present study, 2 groups of 8 mice receiving the BO2 breast carcinoma cells and 1 group of 8 mice (control animals) receiving only the culture medium were used (Table 1.1). Table 1.1 - Design of the study
No animals were excluded for this study. However, one mouse died in one of the BO2-inoculated groups (mouse found dead in the cage on day 7), while no mice died in the control group (n = 8). No randomization was performed at the beginning of the experiment and mice were treated by cage. A seven day treatment with Compound A or vehicle was performed with evaluation of evoked pain at day 1, day 3 and day 7 post-treatment. As bone metastases were distributed in both hind-paws, we decided at the beginning of the study to arbitrarily measure pain-like behavior evoked by a stimulus in only one hind-paw (the right hind-paw). Pain-like behaviors before and after treatment with vehicle or Compound A were evaluated during 3 sessions (i.e. on day 1, day 3 and day 7). […]

[2] = test system: UDP-glucuronosyl transferase; type: in vitro ADME, human; details: for % Control (M6G formation) / % Control (M3G formation): Morphine 2mM, protein 0.5 mg/mL, 30 min
Procedure: Incubations were conducted in 2-mL polypropylene centrifuge tubes. Incubation mixtures containing HLM suspension and alamethicin (25 µg/mL) in 0.1 M potassium phosphate buffer (pH 7.4), were placed on wet ice for 5 min. […] Reactions were initiated by the addition of 50 mM UDPGA spiking solution. […] Samples were incubated aerobically in a water bath at 37 °C for the required amount of time and reactions terminated by the addition of 400 µL of the appropriate quench solution. The 2-mL centrifuge tubes were vortex mixed and stored in a -20 °C freezer for ca. 20 min prior to centrifugation at 13.3 x g, 4 °C for 10 min. Supernatants were analyzed by LC-MS/MS for morphine metabolites formation.
UGT-dependent activities were determined by monitoring the formation of enzyme specific metabolites from marker substrates. […] Incubation with selective inhibitors (positive control) was performed at a concentration above their established IC50 for the confirmation of enzyme activity and inhibitory effects.
Incubations were performed in 2-mL centrifuge tubes. Incubation mixtures containing HLM suspension and alamethicin (25 µg/mL) in 0.1 M potassium phosphate buffer (pH 7.4), were placed on wet ice for 5 min. […] Reactions were initiated by the addition of UDPGA. The final incubation mixture contained 0.5 mg/mL HLM, 2 mM MgCl2, 5 mM UDPGA, various concentration of Compound A or a selective inhibitor. Samples were incubated aerobically in a water bath at 37 °C for 30 min. The incubation systems were terminated by the addition of a 400-µL quenching solution. The 2-mL centrifuge tubes were vortex mixed and stored in a -20 °C freezer for approximately 20 min prior to centrifugation at 13.3 x g, 4 °C for 10 min. Supernatants were analyzed by LC-MS/MS.
Percent of Control = Cmet÷Ccontrol × 100% [formula] • Cmet: Concentration of the metabolite in the incubations in the presence of Compound A or selective inhibitor • Ccontrol: Concentration of the enzyme-specific metabolite in the incubations in the absence of Compound A and selective inhibitor • The IC50 for Compound A was estimated by non-linear regression analysis of individual sets of percent inhibition values using GraphPad Prism 5.

`COc1ccc2c(cccc2[C@H]2CO[C@H](CCCNC(=O)OCC(N)=O)OC2)c1` [Compound A, 2-amino-2-oxoethyl trans-3-[5-(6-methoxy-naphtalen-1-yl)-1,3-dioxan-2-yl]propyl-carbamate] was tested, and the “paw withdrawal thresholds to non-noxious stimulations versus vehicle-treated animals” value ([1]; 10 mg/kg PO once daily, day 3 and day 7) was “significantly higher”, the “Reversal of allodynia (%)” value ([1]; Day 3, 10 mg/kg PO) was 45.06 ±3.11% and the “Delta values (Delta PWT)” value ([1]; Day 3, 10 mg/kg PO) was 0.78 ±0.06. For the same molecule, the “Reversal of allodynia (%)” value ([1]; Day 7, 10 mg/kg PO) was 41.87 ±4.01%, the “Delta values (Delta PWT)” value ([1]; Day 7, 10 mg/kg PO) was 0.79 ±0.08 and the “evoked-pain induced by bone metastases in the hind-paw” value ([1]; acute oral dosing, allodynia fully installed) was “significantly reversed”. For the same molecule, the “Reversal of allodynia (%)” value ([1]; day 1, 30 mg/kg PO, Mean ±SEM) was 68.74 ±8.99%, the “Delta values (Delta PWT)” value ([1]; day 1, 30 mg/kg PO, Mean ±SEM) was 1.04 ±0.13 and the “PWT values at T0” value ([1]; day 1, T0 (baseline before administration), group dosed 30 mg/kg PO, Mean ±SEM) was 1.815 ±0.065 gram. For the same molecule, the “PWT values at T0” value ([1]; day 7, T0 (before that day's administration), 10 mg/kg PO once daily, Mean ±SEM) was 1.728 ±0.050 gram, the “paw withdrawal thresholds to non-noxious stimulations versus vehicle-treated animals” value ([1]; first day, 30 mg/kg PO) was “significantly higher” and the “tolerance in analgesic effect” value ([1]; repeated (7 days) administration) was “did not induce tolerance”. For the same molecule, the “IC50 (M3G and M6G formation)” value ([2]; 2 mM morphine, Compound A 0.5 to 250 µM, HLM) was “could not be estimated”, the “% Control (M6G formation)” value ([2]; Compound A 0.5 µM) was 96.9% and the “% Control (M6G formation)” value ([2]; Compound A 1.0 µM) was 94.4%. For the same molecule, the “% Control (M6G formation)” value ([2]; Compound A 5.0 µM) was 102.4%, the “% Control (M6G formation)” value ([2]; Compound A 10 µM) was 110.4% and the “% Control (M6G formation)” value ([2]; Compound A 25 µM) was 105.8%. For the same molecule, the “% Control (M6G formation)” value ([2]; Compound A 50 µM) was 108.3%, the “% Control (M6G formation)” value ([2]; Compound A 100 µM) was 97.4% and the “% Control (M6G formation)” value ([2]; Compound A 250 µM) was 96.5%. The “% Control (M3G formation)” value ([2]; Compound A 0.5 µm) was 97.7%, the “% Control (M3G formation)” value ([2]; Compound A 1.0 µm) was 96.2% and the “% Control (M3G formation)” value ([2]; Compound A 5.0 µm) was 106.0%. For the same molecule, the “% Control (M3G formation)” value ([2]; Compound A 10 µm) was 107.9%, the “% Control (M3G formation)” value ([2]; Compound A 25 µm) was 108.3% and the “% Control (M3G formation)” value ([2]; Compound A 50 µm) was 105.7%. The “% Control (M3G formation)” value ([2]; Compound A 100 µm) was 92.7%, the “% Control (M3G formation)” value ([2]; Compound A 250 µm) was 94.2% and the “drug interaction with morphine” value ([2]; according to in vitro results) was “no significant drug interaction”. The “inhibition of morphine metabolism” value ([2]; human liver microsomes, M3G and M6G formation) was “no inhibition”.

With `CC(=O)N1CCN(c2ccc(OCC3COC(Cn4ccnc4)(c4ccc(Cl)cc4Cl)O3)cc2)CC1` (centres unmarked) [ketoconazole, reference compound] the “inhibition of M6G activity” value ([2]; positive control, same conditions (2 mM morphine, HLM 0.5 mg/mL, 30 min)) was at least 98.5%.
